This note sets out measurements from PubChem BioAssay (NCI).

Common to all, as to experiment: growth of human tumour cells (NCI), 48 h
For test [1], the system named is HS 578T breast.
For test [2], the system named is MCF7 breast.
In test [3] the test system is DU-145 prostate.
The subject of test [4] is BT-549 breast.
The subject of test [5] is PC-3 prostate.
Test [6] concerns NCI/ADR-RES ovarian.
Test [7] has as its system T-47D breast.

Each structure is given as a SMILES string. “And” between values parts separate entries of the source, which are not always exact repeats. Equal values may be shown once.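 Test compounds were applied to cells in 96-well plates for 48 hours at 5 doses. GI50: concentration for 50% inhibition of growth. TGI denotes the concentration required for complete inhibition of growth.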 Where a SMILES comes first, the peptide text is derived from it. [ ]: non-standard residue; d: D form. The star is where a group is joined. Bn2Val = CC(C)[C@@H](C(=O)*)N(Cc1ccccc1)Cc1ccccc1; NH(3,4-diMeO-benzyl) = COc1ccc(CN*)cc1OC; NMeV = CN[C@H](C(=O)O)C(C)C; dNMeA = CN[C@H](C)C(=O)O Bounds are passed on as bounds.

Regarding `COc1ccc(CNC(=O)[C@@H](C)N(C)C(=O)[C@@H]2CCCN2C(=O)[C@H](C(C)C)N(C)C(=O)[C@@H](NC(=O)[C@H](C(C)C)N(Cc2ccccc2)Cc2ccccc2)C(C)C)cc1OC` (Bn2Val-V[NMeV]P[dNMeA]-{NH(3,4-diMeO-benzyl)}), the GI50 in test [1] was 19.5 µM; in test [4] it was 9.43 µM; in test [5] it was 5.61 µM; in test [6], 6.35 µM. For the same compound, the TGI in test [2] was 25.3 µM; in test [3], 50 µM and 42.3 µM; in test [4], 15.1 µM and 27.1 µM; in test [5] it was 26 µM and 24.5 µM; in test [6], 32.9 µM and 40.1 µM; in test [7], 50 µM and 81.1 µM.
Regarding `O=[n+]1c(CBr)c(CBr)n([O-])c2ccccc21`, the GI50 in test [1] is 17 µM; in test [2], 3.11 µM; in test [3] it was 5.8 µM; in test [4], 1.85 µM; in test [5], 13.4 µM; in test [6] it was 14.5 µM. The GI50 in test [7] was 2.58 µM. Further, the TGI in test [1] amounted to 45.3 µM; in test [2], 12.4 µM; in test [3] it was 18.4 µM; in test [4], 5.13 µM; in test [5], 31.1 µM; in test [6] it was 33.7 µM. Moreover, the TGI in test [7] turned out to be 6.8 µM.
As for `Fc1ccc(-c2nn(-c3ccccc3)cc2-c2nc3ccccc3o2)cc1`, the GI50 in test [1] is 6.48 µM; in test [2], 0.539 µM; in test [3], 5.65 µM; in test [4], 2.97 µM; in test [5], 0.491 µM; in test [6] it was 3.57 µM. Also, the GI50 in test [7] is 37.3 µM. Besides, the TGI in test [1] is 66.5 µM; in test [2], more than 100 µM; in test [3], 19.4 µM; in test [4], 21.4 µM; in test [5], more than 100 µM; in test [6] it was more than 100 µM. For the same compound, the TGI in test [7] is more than 100 µM.
In the case of `COc1cccc(-c2nn(-c3ccccc3)cc2-c2ccnc(NCCCNS(=O)(=O)c3cccc(F)c3)c2)c1`, the GI50 was 6.52 µM in test [1]; 3.21 µM in test [2]; 6.33 µM in test [3]; 2.76 µM in test [4]; 2.97 µM in test [5]; 3.05 µM in test [6]. Moreover, the GI50 in test [7] is 1.54 µM. Also, the TGI in test [1], in test [2], in test [3], in test [4], in test [5] and in test [6] was more than 100 µM each time. In test [7], this compound had a TGI of 5.27 µM.
As for `CN(C)CCNc1nc2ccccc2c2[nH]c3ccccc3c12`, the GI50 in test [1] was 4.01 µM; in test [2], 0.129 µM; in test [3], 1.06 µM; in test [4], 2.58 µM; in test [5] it was 0.574 µM; in test [6], 1.02 µM. For the same compound, the GI50 in test [7] was 15.8 µM. Besides, the TGI worked out at 13.6 µM in test [1]; 0.941 µM in test [2]; 6.93 µM in test [3]; 8.83 µM in test [4]; 2.8 µM in test [5]; 7.86 µM in test [6]. This compound showed a TGI in test [7] of 92.2 µM.
As for `CC(=O)c1ccc(N(/C=C/C(=O)C(F)(F)F)CC(=O)c2ccc(Cl)c(Cl)c2)cc1`, the GI50 was 20.3 µM in test [1]; 15.3 µM in test [2]; 19.2 µM in test [3]; 19.9 µM in test [4]; 11.5 µM in test [5]; 18.2 µM in test [6]. Besides, in test [7], the GI50 was 26.4 µM. For the same compound, the TGI turned out to be 45.2 µM in test [1]; 65.3 µM in test [2]; 36.1 µM in test [3]; 38.9 µM in test [4]; 30.2 µM in test [5]; 38.4 µM in test [6]. In test [7], this compound came in with a TGI of 75.4 µM.
In the case of `Clc1cccc(NC=Nc2ccc(-c3nc4ccccc4s3)cc2)c1`, the GI50 in test [1] is 32.6 µM; in test [2], 9.44 µM; in test [3], 16.4 µM; in test [4], 23.3 µM; in test [5] it was 12.1 µM; in test [6], 13.2 µM. Moreover, the GI50 in test [7] is 10.8 µM. For the same compound, the TGI in test [1] was more than 50 µM; in test [2], 35.6 µM; in test [3], 38.8 µM; in test [4], more than 50 µM; in test [5], more than 50 µM; in test [6], 32 µM. Moreover, the TGI in test [7] came to 39 µM.
As to `O=C1c2ccccc2C(=O)c2c1ccc1[nH]c(CCl)nc21`, the GI50 was 2.94 µM in test [1]; 1.75 µM in test [2]; 4.27 µM in test [3]; 3.52 µM in test [4]; 2.23 µM in test [5]; 2.76 µM in test [6]. Moreover, the GI50 in test [7] is 1.96 µM. Also, the TGI in test [1] was found to be 14.7 µM; in test [2], 4.2 µM; in test [3], 14.5 µM; in test [4], 12.7 µM; in test [5], 7.01 µM; in test [6], 10.4 µM. The compound further displayed a TGI in test [7] of 4.37 µM.
